Measurements taken from the NIST ThermoML archive (doi:10.1016/j.jct.2018.01.003).
± gives the expanded uncertainty stated by the source.

Assay: activity coefficient (dimensionless); of the first substance listed, at infinite dilution; xn = mol fraction of the nth substance listed
Details: 101.33 kPa, Liquid, Chromatography, x1 = 0

SMILES	activity coefficient (328.15 K)	activity coefficient (338.15 K)	activity coefficient (348.15 K)	activity coefficient (358.15 K)	activity coefficient (368.15 K)
Cc1ccccc1C [1,2-dimethylbenzene] + CCCCCCCCCCCCCC[P+](CCCCCC)(CCCCCC)CCCCCC.N#CC(=C=[N-])C#N	0.646 ± 0.044	0.677 ± 0.046	0.706 ± 0.047	0.734 ± 0.049	0.76 ± 0.05
Cc1cccc(C)c1 [1,3-dimethylbenzene] + CCCCCCCCCCCCCC[P+](CCCCCC)(CCCCCC)CCCCCC.N#CC(=C=[N-])C#N	0.713 ± 0.048	0.74 ± 0.049	0.77 ± 0.05	0.8 ± 0.052	0.826 ± 0.053
Cc1ccc(C)cc1 [1,4-dimethylbenzene] + CCCCCCCCCCCCCC[P+](CCCCCC)(CCCCCC)CCCCCC.N#CC(=C=[N-])C#N	0.71 ± 0.047	0.742 ± 0.049	0.773 ± 0.051	0.804 ± 0.052	0.83 ± 0.053
C1COCCO1 [1,4-dioxane] + CCCCCCCCCCCCCC[P+](CCCCCC)(CCCCCC)CCCCCC.N#CC(=C=[N-])C#N	0.578 ± 0.041	0.594 ± 0.042	0.608 ± 0.043	0.628 ± 0.043	0.642 ± 0.044
C=CCCCCCCCC [1-decene] + CCCCCCCCCCCCCC[P+](CCCCCC)(CCCCCC)CCCCCC.N#CC(=C=[N-])C#N	2.32 ± 0.16	2.37 ± 0.16	2.41 ± 0.16	2.45 ± 0.17	2.49 ± 0.17
C=CCCCCC [1-heptene] + CCCCCCCCCCCCCC[P+](CCCCCC)(CCCCCC)CCCCCC.N#CC(=C=[N-])C#N	1.56 ± 0.1	1.6 ± 0.11	1.64 ± 0.11	1.67 ± 0.11	1.7 ± 0.11
C#CCCCCC [1-heptyne] + CCCCCCCCCCCCCC[P+](CCCCCC)(CCCCCC)CCCCCC.N#CC(=C=[N-])C#N	0.938 ± 0.059	0.982 ± 0.062	1.03 ± 0.06	1.07 ± 0.07	1.11 ± 0.07
C#CCCCC [1-hexyne] + CCCCCCCCCCCCCC[P+](CCCCCC)(CCCCCC)CCCCCC.N#CC(=C=[N-])C#N	0.833 ± 0.054	0.875 ± 0.056	0.914 ± 0.058	0.952 ± 0.06	0.987 ± 0.062
CCC[N+](=O)[O-] [1-nitropropane] + CCCCCCCCCCCCCC[P+](CCCCCC)(CCCCCC)CCCCCC.N#CC(=C=[N-])C#N	–	0.557 ± 0.04	0.566 ± 0.041	0.577 ± 0.041	0.585 ± 0.041
C#CCCCCCC [1-octyne] + CCCCCCCCCCCCCC[P+](CCCCCC)(CCCCCC)CCCCCC.N#CC(=C=[N-])C#N	1.06 ± 0.07	1.11 ± 0.07	1.16 ± 0.07	1.21 ± 0.08	1.25 ± 0.08
C=CCCC [1-pentene] + CCCCCCCCCCCCCC[P+](CCCCCC)(CCCCCC)CCCCCC.N#CC(=C=[N-])C#N	1.25 ± 0.08	1.27 ± 0.08	1.3 ± 0.08	1.32 ± 0.09	1.34 ± 0.09
C#CCCC [1-pentyne] + CCCCCCCCCCCCCC[P+](CCCCCC)(CCCCCC)CCCCCC.N#CC(=C=[N-])C#N	0.76 ± 0.05	0.797 ± 0.052	0.832 ± 0.054	0.863 ± 0.055	0.893 ± 0.057
CC(C)CC(C)(C)C [2,2,4-trimethylpentane] + CCCCCCCCCCCCCC[P+](CCCCCC)(CCCCCC)CCCCCC.N#CC(=C=[N-])C#N	2.22 ± 0.15	2.25 ± 0.15	2.28 ± 0.16	2.31 ± 0.16	2.33 ± 0.16
CCC(C)(C)C [2,2-dimethylbutane] + CCCCCCCCCCCCCC[P+](CCCCCC)(CCCCCC)CCCCCC.N#CC(=C=[N-])C#N	1.85 ± 0.12	1.87 ± 0.13	1.89 ± 0.13	1.91 ± 0.13	1.93 ± 0.13
